According to US10040802B2, “Thienopyrazine inhibitors of IRAK4 activity” (MERCK SHARP & DOHME CORP., priority 2015, dated 2018):
Structures can show the parent of a compound that is named as a salt.

What follows are molecules tested against GST tagged IRAK4 (Homo sapiens (Human), UniProt Q9NWZ3) (assay: IRAK4 Kinase Assay (IMAP fluorescence polarization)). Conditions: 0.5 nM GST tagged IRAK4, 100 μM ATP, 30 minutes at 25° C.
Format: biochemical
Outline: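 GST-tagged IRAK4 (0.5 nM) phosphorylates 100 nM fluorescent peptide with 100 μM ATP in 10 mM Tris pH 7.2, 1 mM MgCl2, 1 mM DTT, 0.01% Tween 20 for 30 min at 25 °C. Phosphorylation read as IMAP nanoparticle-binding fluorescence polarization after stop reagent.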

GST tagged IRAK4, sequence (Q9NWZ3 whole entry): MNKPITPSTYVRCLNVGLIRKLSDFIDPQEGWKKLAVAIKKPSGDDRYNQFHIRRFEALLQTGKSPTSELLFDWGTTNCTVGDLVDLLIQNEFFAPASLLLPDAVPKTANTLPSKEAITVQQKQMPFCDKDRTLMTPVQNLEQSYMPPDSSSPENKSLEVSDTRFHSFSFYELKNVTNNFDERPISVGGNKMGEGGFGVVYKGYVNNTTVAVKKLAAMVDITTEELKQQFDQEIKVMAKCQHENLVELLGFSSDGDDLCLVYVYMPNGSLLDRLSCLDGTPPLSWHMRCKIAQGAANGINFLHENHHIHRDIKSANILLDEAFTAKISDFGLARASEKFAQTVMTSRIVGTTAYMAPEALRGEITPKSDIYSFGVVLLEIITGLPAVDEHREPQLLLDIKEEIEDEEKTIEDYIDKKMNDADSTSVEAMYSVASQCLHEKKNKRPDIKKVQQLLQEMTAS

Row | IC50 [nM] | SMILES
1 | 6 | Cn1cc(NC(=O)c2csc3ncc(N4CCNCC5(CC5)C4)nc23)c(C(F)F)n1 [Example 13, 2-(5,8-diazaspiro[2.6]non-5-yl)-N-[3-(difluoromethyl)-1-methyl-1H-pyrazol-4-yl]thieno[2,3-b] pyrazine-7-carboxamide trifluoroacetate]
2 | 5 | Cn1cc(NC(=O)c2csc3ncc(N4CCCNCC4)nc23)c(C(F)F)n1 [Example 14, 2-(1,4-diazepan-1-yl)-N-[3-(difluoromethyl)-1-methyl-1H-pyrazol-4-yl]thieno[2,3-b] pyrazine-7-carboxamide trifluoroacetate]
3 | 4 | Cn1cc(NC(=O)c2csc3ncc(NC4CCCCNC4)nc23)c(C(F)(F)F)n1 (centres unmarked) [Example 15, 2-(azepan-3-ylamino)-N-[1-methyl-3 (trifluoromethyl)-1H-pyrazol-4-yl]thieno[2,3-b] pyrazine-7-carboxamide trifluoroacetate]
4 | 14 | Cn1cc(NC(=O)c2csc3ncc(N4CCCNCC4)nc23)c(Cl)n1 [Example 18, N-(3-chloro-1-methyl-1H-pyrazol-4-yl)-2-(1,4-diazepan-1-yl)thieno[2,3-b] pyrazine-7-carboxamide trifluoroacetate]
5 | 15 | Cn1cc(NC(=O)c2csc3ncc(N4CCCNCC4)nc23)c(Br)n1 [Example 21, N-(3-bromo-1-methyl-1H-pyrazol-4-yl)-2-(1,4-diazepan-1-yl)thieno[2,3-b] pyrazine-7-carboxamide trifluoroacetate]
6 | 0.2 | Cn1cc(NC(=O)c2csc3ncc(N4CCC[C@@H](N)C4)nc23)c(C(F)F)n1 [Example 24, 2[(3R)-3-aminopiperidin-1-yl] N-[3-(difluoromethyl)-1-methyl-1H-pyrazol-4-yl]thieno[2,3-b] pyrazine-7-carboxamide trifluoroacetate]
7 | 0.2 | Cn1cc(NC(=O)c2csc3ncc(N[C@@H]4CCCC[C@@H]4N)nc23)c(C(F)F)n1 [Example 25, 2-{[(1R,2S)-2-aminocyclohexyl]amino}-N-[3-(difluoromethyl)-1-methyl-1H-pyrazol-4-yl]thieno[2,3-b] pyrazine-7-carboxamide trifluoroacetate]
8 | 26 | Cn1cc(NC(=O)c2csc3ncc(N4CCCNCC4)nc23)c(C#N)n1 [Example 28, N-(3-cyano-1-methyl-1H-pyrazol-4-yl)-2-(1,4-diazepan-1-yl)thieno[2,3-b] pyrazine-7-carboxamide trifluoroacetate]
9 | 107 | Cn1cc(NC(=O)c2csc3ncc(N[C@@H]4CCCC(F)(F)[C@@H]4N)nc23)c(Br)n1 [Example 29, 2-{[(1R,2R)-2-amino-3,3-difluorocyclohexyl]amino}-N-(3-(bromo-1-methyl-1H-pyrazol-4-yl)thieno[2,3-b]pyrazine-7-carboxamide trifluoroacetate]
10 | 0.6 | Cn1cc(NC(=O)c2csc3ncc(N[C@@H]4CCCC[C@@H]4N)nc23)c(Br)n1 [Example 30, 2-{[(1R,2S)-2-aminocyclohexyl]amino}-N-(3-bromo-1-methyl-1H-pyrazol-4-yl)thieno[2,3-b] pyrazine-7-carboxamide trifluoroacetate]
11 | 0.4 | Cn1cc(NC(=O)c2csc3ncc(N[C@@H]4CCCNC4)nc23)c(C(F)F)n1 [Example 32, N-[3-(difluoromethyl)-1-methyl-1H-pyrazol-4-yl]-2-[(3R)-piperidin-3-ylamino]thieno [2,3-b]pyrazine-7-carboxamide]
12 | 0.3 | Cn1cc(NC(=O)c2csc3ncc(N[C@@H]4CCCC[C@@H]4N)nc23)c(Cl)n1 [Example 35, 2-{[(1R,2S)-2-aminocyclohexyl]amino}-N-(3-chloro-1-methyl-1H-pyrazol-4-yl)thieno[2,3-b] pyrazine-7-carboxamide trifluoroacetate]
13 | 50 | Cn1cc(NC(=O)c2csc3ncc(N[C@@H]4CCCC(F)(F)[C@@H]4N)nc23)c(C#N)n1 [Example 36, 2-{[(1R,2R)-2-amino-3,3-difluorocyclohexyl]amino}-N-(3-cyano-1-methyl-1H-pyrazol-4-yl]thieno[2,3-b] pyrazine-7-carboxamide trifluoroacetate]
14 | 0.4 | Cn1cc(NC(=O)c2csc3ncc(N[C@@H]4CCCC[C@@H]4N)nc23)c(C#N)n1 [Example 37, 2-{[(1R,2S)-2-aminocyclohexyl]amino}-N-(3-cyano-1-methyl-1H-pyrazol-4-yl)thieno[2,3-b] pyrazine-7-carboxamide trifluoroacetate]
15 | 32 | Cn1cc(NC(=O)c2csc3ncc(N[C@@H]4CCCC(F)(F)[C@@H]4N)nc23)c(C(F)F)n1 [Example 39, 2-{[(1R,2R)-2-amino-3,3-difluorocyclohexyl]amino}-N-[3-(difluoromethyl)-1-methyl-1H-pyrazol-4-yl]thieno[2,3-b] pyrazine-7-carboxamide]
16 | 64 | Cn1cc(NC(=O)c2csc3ncc(N[C@@H]4CCCC(F)(F)[C@@H]4N)nc23)c(Cl)n1 [Example 43, 2-{[(1R,2R)-2-amino-3,3-difluorocyclohexyl]amino}-N-(3-chloro-1-methyl-1H-pyrazol-4-yl)thieno[2,3-b] pyrazine-7-carboxamide trifluoroacetate]
17 | 38 | O=C(Nc1cscc1C(F)F)c1csc2ncc(N3CCCNCC3)nc12 [Example 47, 2-(1,4-diazepan-1-yl)-N-[4-(difluoromethyl)thiophen-3-yl] thieno[2,3-b] pyrazine-7-carboxamide trifluoroacetate]
18 | 346 | O=C(Nc1cscc1Br)c1csc2ncc(N3CCCNCC3)nc12 [Example 48, N-(4-bromothiophen-3-yl)-2-(1,4-diazepan-1-yl)thieno[2,3-b] pyrazine-7-carboxamide trifluoroacetate]
19 | 0.7 | N[C@H]1CCCC[C@H]1Nc1cnc2scc(C(=O)Nc3cscc3C(F)F)c2n1 [Example 50, 2-{[(1R,2S)-2-aminocyclohexyl]amino}-N-(4-(difluoromethyl)thiophen-3-yl] thieno[2,3-b] pyrazine-7-carboxamide trifluoroacetate]
20 | 1160 | O=C(Nc1ccsc1Br)c1csc2ncc(N3CCCNCC3)nc12 [Example 51, N-(2-bromothiophen-3-yl)-2-(1,4-diazepan-1-yl)thieno[2,3-b] pyrazine-7-carboxamide trifluoroacetate]
21 | 585 | O=C(Nc1ccsc1Cl)c1csc2ncc(N3CCCNCC3)nc12 [Example 52, N-(2-chlorothiophen-3-yl)-2-(1,4-diazepan-1-yl)thieno[2,3-b] pyrazine-7-carboxamide trifluoroacetate]
22 | 0.6 | N[C@H]1CCCC[C@H]1Nc1cnc2scc(C(=O)Nc3cscc3Br)c2n1 [Example 53, 2-{[(1R,2S)-2-amino-cyclohexyl]amino}-N-(4-bromothiophen-3-yl)thieno[2,3-b] pyrazine-7-carboxamide trifluoroacetate]
23 | 1 | N[C@H]1CCCC[C@H]1Nc1cnc2scc(C(=O)Nc3ccsc3Br)c2n1 [Example 54, 2-{[(1R,2S)-2-amino-cyclohexyl]amino}-N-(2-bromothiophen-3-yl)thieno[2,3-b] pyrazine-7-carboxamide trifluoroacetate]
24 | 189 | N#Cc1cscc1NC(=O)c1csc2ncc(N3CCCNCC3)nc12 [Example 55, N-(4-cyanothiophen-3-yl)-2-(1,4-diazepan-1-yl)thieno[2,3-b] pyrazine-7-carboxamide trifluoroacetate]
25 | 0.6 | N[C@H]1CCCC[C@H]1Nc1cnc2scc(C(=O)Nc3ccsc3Cl)c2n1 [Example 56, 2-{[(1R,2S)-2-amino-cyclohexyl]amino}-N-(2-chlorothiophen-3-yl)thieno[2,3-b] pyrazine-7-carboxamide trifluoroacetate]
26 | 0.5 | N#Cc1cscc1NC(=O)c1csc2ncc(N[C@@H]3CCCC[C@@H]3N)nc12 [Example 57, 2-{[(1R,2S)-2-amino-cyclohexyl]amino}-N-(4-cyanothiophen-3-yl)thieno[2,3-b] pyrazine-7-carboxamide trifluoroacetate]
27 | 1410 | N[C@@H]1[C@H](Nc2cnc3scc(C(=O)Nc4ccsc4Cl)c3n2)CCCC1(F)F [Example 60, 2-{[(1R,2R)-2-amino-3,3-difluorocyclohexyl]amino}-N-(2-chloro-thiophen-3-yl) thieno[2,3-b] pyrazine-7-carboxamide trifluoroacetate]
28 | 330 | N[C@@H]1[C@H](Nc2cnc3scc(C(=O)Nc4cscc4C(F)F)c3n2)CCCC1(F)F [Example 67, 2-{[(1R,2R)-2-amino-3,3-difluorocyclohexyl]amino}-N-[4-(difluoromethyl)thiophen-3-yl] thieno[2,3-b] pyrazine-7-carboxamide trifluoroacetate]

Row | SMILES | IC50 [nM]
29 | Cn1cc(NC(=O)c2csc3ncc(N4CC5CCC(C4)N5)nc23)c(C(F)F)n1 [Example 40, 2-(3,8-diazabicyclo[3.2.1]oct-3-yl)-N-[3-(difluoromethyl)-1-methyl-1H-pyrazol-4-yl]thieno[2,3-b] pyrazine-7-carboxamide trifluoroacetate] | 0.6
30 | Cn1cc(NC(=O)c2csc3ncc(N4CC5CCC(C4)N5)nc23)c(C(F)(F)F)n1 [Example 41, 2-(3,8-diazabicyclo[3.2.1]oct-3-yl)-N-[1-methyl-3-(trifluoromethyl)-1H-pyrazol-4-yl]thieno[2,3-b] pyrazine-7-carboxamide trifluoroacetate] | 18
31 | Cn1cc(NC(=O)c2csc3ncc(N4C5CCC4CNC5)nc23)c(C(F)F)n1 [Example 44, 2-(3,8-diazabicyclo[3.2.1]oct-8-yl)-N-[3-(difluoromethyl)-1-methyl-1H-pyrazol-4-yl]thieno[2,3-b] pyrazine-7-carboxamide trifluoroacetate] | 0.5
32 | Cn1cc(NC(=O)c2csc3ncc(N4C5CCC4CNC5)nc23)c(C(F)(F)F)n1 [Example 45, 2-(3,8-diazabicyclo[3.2.1]oct-8-yl)-N-[1-methyl-3-(trifluoromethyl)-1H-pyrazol-4-yl]thieno[2,3-b] pyrazine-7-carboxamide trifluoroacetate] | 2
